Source: patent US20100310591A1 (priority 2009, published 2010)

system: CD4+ T cells (CD8+ depleted donor PBMC); assay type: cell-based, human; conditions: not given

Substance | frequency of recognition (responding vaccine recipients / tested) | in vitro IFN-γ response (in words)
Ac-LRMK-ava-HLLSRINHFEKIQ—NH2 [Ii-Key peptide No. 121] | 9/35 | strongest in vitro IFN-γ responses
Ac-LRMK-ava-KKNSAYPTIKRSY—NH2 [Ii-Key peptide No. 170] | 9/35 | strongest in vitro IFN-γ responses
Ac-LRMK-ava-TIKRSYNNTNQED—NH2 [Ii-Key peptide No. 177] | 10/35 | strongest in vitro IFN-γ responses

system: CD4+ T cells (CD8+ depleted PBMC of rHA-responsive donors); assay type: cell-based, human; conditions: not given

Substance | in vitro CD4 response, fold above background [fold above background] | recognition frequency among donors [%]
LRNSPQRERRRKKRGLF [BEI 57] | 4.1 | 
LVPRIATRSKVNGQSGR [BEI 39] | 3.8 | 
MEKNVTVTHAQDUKEKT [BEI 7] | 12 | 
NHFEKIQIIPKSSWSSH [BEI 22] | 4.6 | 
PLILRDCSVAGWLLGNP [BEI 12] | 3.3 | 
SNVKNLYDKVRLQLRDN [BEI 78] | 3.3 | 
STLNQRLVPRIATRSKV [BEI 38] | 13 | 
VTHAQDILEKTHNGKL [BEI 8] | 3.4 | 
WLIKKNSTYPTILRSYN [BEI 29] | 3.6 | 
YQGKSSFFRNVVWLIKK [BEI 27] | 12 | 
YQNPTTYISVGTSTLNQ [BEI 36] |  | 21

system: MHC class II molecules; conditions: cited from earlier work

Substance | share of maximal activity of any member of the series of Ii-key peptides
LRMK (SEQ ID NO: 3) | at least 50%
